Usually viability stands for the share of living cells, or the viability signal relative to a control. Higher therefore signals less harm to the cells.

The values below come from US20240108753A1, “NUCLEIC ACID DELIVERY” (NUNTIUS THERAPEUTICS LIMITED, priority 2021, published 2024).

The data set in a line: Cell viability after transfection (crystal violet). As to conditions: human, HeLa cells, following transfection with DNA formulations. In kind it is cell-based, human. As to the method: Cell viability. Cells were transfected as described in ‘Transfection Procedure’. Following 24 hours of transfection, the medium was removed and the cells were washed twice with PBS. Afterwards, the cells were dried for 1 hour at room temperature (to allow permeation of the nuclear stain). Crystal violet solution (50 μL of stock solution supplied by Sigma-Aldrich) was added to the cells. They were incubated for 15 min at room temperature. After washing with distilled water (5 times), the cells were dried for 30 min at room temperature. Then, MeOH (200 μL) was added and the suspension was incubated for 1 hour at room temperature. The relative amount of the crystal violet stain retained by viable cells was determined by the absorbance of the methanolic solution at 550 nm.

Molecules are shown by their SMILES. Where a SMILES comes first, the peptide text is derived from it. Bounds are passed on as bounds.

Consider `CC(C)C[C@H](NC(=O)[C@H](CCCCN)NC(=O)[C@H](CCCCNC(=O)[C@H](CC(C)C)NC(=O)[C@H](CCCCN)NC(=O)[C@H](CCCCNC(=O)[C@H](CC(C)C)NC(=O)[C@@H](N)CCCCN)NC(=O)[C@H](CC(C)C)NC(=O)[C@@H](N)CCCCN)NC(=O)[C@H](CC(C)C)NC(=O)[C@H](CCCCN)NC(=O)[C@H](CCCCNC(=O)[C@H](CC(C)C)NC(=O)[C@@H](N)CCCCN)NC(=O)[C@H](CC(C)C)NC(=O)[C@@H](N)CCCCN)C(=O)NCCCC[C@H](NC(=O)[C@H](CC(C)C)NC(=O)[C@H](CCCCN)NC(=O)[C@H](CCCCNC(=O)[C@H](CC(C)C)NC(=O)[C@H](CCCCN)NC(=O)[C@H](CCCCNC(=O)[C@H](CC(C)C)NC(=O)[C@@H](N)CCCCN)NC(=O)[C@H](CC(C)C)NC(=O)[C@@H](N)CCCCN)NC(=O)[C@H](CC(C)C)NC(=O)[C@H](CCCCN)NC(=O)[C@H](CCCCNC(=O)[C@H](CC(C)C)NC(=O)[C@@H](N)CCCCN)NC(=O)[C@H](CC(C)C)NC(=O)[C@@H](N)CCCCN)C(=O)NCC(=O)N[C@@H](CO)C(=O)N[C@@H](CS)C(N)=O` [G1,2,3-KL, (KL)8(KKL)4(KKL)2KGSC-NH2] (HELM PEPTIDE1{K.L.K.K.L.K.K.L.K.G.S.C.[am]}|PEPTIDE2{K.L}|PEPTIDE3{K.L.K.K.L.K.K.L}|PEPTIDE4{K.L}|PEPTIDE5{K.L.K.K.L}|PEPTIDE6{K.L}|PEPTIDE7{K.L.K.K.L}|PEPTIDE8{K.L}$PEPTIDE1,PEPTIDE2,3:R3-2:R2|PEPTIDE3,PEPTIDE4,3:R3-2:R2|PEPTIDE5,PEPTIDE6,3:R3-2:R2|PEPTIDE7,PEPTIDE8,3:R3-2:R2|PEPTIDE1,PEPTIDE7,6:R3-5:R2|PEPTIDE1,PEPTIDE3,9:R3-8:R2|PEPTIDE3,PEPTIDE5,6:R3-5:R2$$$V2.0), for which the viability at 24 h was at least 40%.
